Assay results: patent US9233964B2, “Sulfamide piperazine derivatives as protein tyrosine kinase inhibitors and pharmaceutical use therof” (LEO PHARMA A/S, priority 2011, dated 2016)
pEC50: −log10 of the molar value.

Experiments:
Assay type in all cases: biochemical
[1] = molecular target: T1, TYK2 (Homo sapiens, UniProt P29597); assay: JAK kinase assay (HTRF, phosphorylation of synthetic peptide), TYK2; conditions: catalytic domain, ATP at Km (13 μM); read-out: TYK2 kinase inhibitory activity (EC50)
T1 construct: JAK1 (aa 850-1154) and TYK2 (aa 871-1187) are expressed with an N-terminally fused GST-tag; GST (N); purchased Carna Biosciences, Inc; host or cells: baculovirus expression system
T1 sequence (P29597 871-1187): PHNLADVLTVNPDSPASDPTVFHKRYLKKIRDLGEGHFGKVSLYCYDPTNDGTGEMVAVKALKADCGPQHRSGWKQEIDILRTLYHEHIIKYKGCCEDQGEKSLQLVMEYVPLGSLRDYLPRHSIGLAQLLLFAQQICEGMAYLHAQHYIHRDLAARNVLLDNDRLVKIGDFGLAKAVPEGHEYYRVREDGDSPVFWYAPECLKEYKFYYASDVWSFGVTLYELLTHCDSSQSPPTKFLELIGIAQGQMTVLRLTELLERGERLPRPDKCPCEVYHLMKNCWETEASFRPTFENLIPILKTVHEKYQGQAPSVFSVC
Summary of the method: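 1 µM biotinylated TK peptide at Km ATP in pH 7.0 Hepes, 20-30 min RT. EDTA stop; overnight streptavidin-XL665/cryptate HTRF read.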

[2] = molecular target: T2, JAK1 (Homo sapiens, UniProt P23458); assay: JAK kinase assay (HTRF, phosphorylation of synthetic peptide), JAK1; conditions: catalytic domain, ATP at Km (7 μM); read-out: JAK1 kinase inhibitory activity (EC50)
T2 construct: JAK1 (aa 850-1154) and TYK2 (aa 871-1187) are expressed with an N-terminally fused GST-tag; GST (N); purchased Carna Biosciences, Inc; host or cells: baculovirus expression system
Summary of the method: (§1)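 Catalytic-domain human JAK1 (GST-tagged, aa 850-1154) or His-tagged JAK2, baculovirus-expressed, phosphorylated 1 µM biotinylated TK peptide at Km ATP (JAK1 7 µM, 10 mM MgCl2, 50 nM SEB; JAK2 4 µM, 5 mM MgCl2) in pH 7.0 Hepes, 20-30 min RT. EDTA stop; overnight streptavidin-XL665/cryptate HTRF read.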

[3] = molecular target: T3, JAK3 (Homo sapiens, UniProt P52333); assay: JAK kinase assay (HTRF, phosphorylation of synthetic peptide), JAK3; conditions: catalytic domain, ATP at Km (2 μM); read-out: JAK3 kinase inhibitory activity (EC50)
T3 construct: All four purified enzymes contain only the catalytic domain; His (N); purchased Carna Biosciences, Inc; host or cells: baculovirus expression system

[4] = molecular target: T4, JAK2 (Homo sapiens, UniProt O60674); assay: JAK kinase assay (HTRF, phosphorylation of synthetic peptide), JAK2; conditions: catalytic domain, ATP at Km (4 μM); read-out: JAK2 kinase inhibitory activity (EC50)
T4 construct: All four purified enzymes contain only the catalytic domain; His (N); purchased Carna Biosciences, Inc; host or cells: baculovirus expression system
Summary of the method: as §1

T3 sequence (P52333 822-1111 limits assumed): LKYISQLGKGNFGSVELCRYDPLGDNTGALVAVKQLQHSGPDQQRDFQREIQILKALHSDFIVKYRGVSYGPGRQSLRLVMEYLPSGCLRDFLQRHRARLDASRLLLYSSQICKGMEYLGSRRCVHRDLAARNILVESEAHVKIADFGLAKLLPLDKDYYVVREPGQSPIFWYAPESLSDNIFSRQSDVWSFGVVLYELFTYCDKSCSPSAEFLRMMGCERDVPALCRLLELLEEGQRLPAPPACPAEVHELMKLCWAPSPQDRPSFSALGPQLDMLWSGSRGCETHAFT
T2 sequence (P23458 850-1154): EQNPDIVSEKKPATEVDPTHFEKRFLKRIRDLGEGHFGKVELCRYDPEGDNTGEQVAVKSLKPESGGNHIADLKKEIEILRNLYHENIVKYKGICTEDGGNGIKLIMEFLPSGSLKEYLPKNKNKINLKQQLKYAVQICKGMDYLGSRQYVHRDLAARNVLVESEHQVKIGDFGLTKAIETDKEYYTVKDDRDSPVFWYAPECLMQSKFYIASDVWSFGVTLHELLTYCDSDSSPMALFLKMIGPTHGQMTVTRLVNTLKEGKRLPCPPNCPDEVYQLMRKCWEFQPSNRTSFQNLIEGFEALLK
T4 sequence (O60674 849-1124 limits assumed): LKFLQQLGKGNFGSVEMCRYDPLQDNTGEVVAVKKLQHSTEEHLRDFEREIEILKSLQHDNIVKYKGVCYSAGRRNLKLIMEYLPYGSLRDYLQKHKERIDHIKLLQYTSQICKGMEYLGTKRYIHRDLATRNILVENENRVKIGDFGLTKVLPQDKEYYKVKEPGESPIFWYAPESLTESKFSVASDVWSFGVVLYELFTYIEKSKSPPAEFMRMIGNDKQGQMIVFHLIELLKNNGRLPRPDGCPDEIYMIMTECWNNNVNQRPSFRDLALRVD

Row | Compound | pEC50 [1] | pEC50 [2] | pEC50 [3] | pEC50 [4]
1 | CC(=O)N(CC1CCS(=O)(=O)CC1)S(=O)(=O)N1CCN(c2ncnc3[nH]ccc23)CC12CC2 [Example 173, N-[(1,1-dioxothian-4-yl)methyl]-N-[[5-(7H-pyrrolo[2,3-d]pyrimidin-4-yl)-5,8-diazaspiro[2.5]octan-8-yl]sulfonyl]acetamide] | 6.30 to 7.00 | > 7.00 | > 7.00 | > 7.00
2 | O=S(=O)(N(CCc1ccccc1)CC1CCCCO1)N1CCN(c2ncnc3[nH]ccc23)CC12CC2 (centres unmarked) [Example 21, 7-(7H-Pyrrolo[2,3-d]pyrimidin-4-yl)-4,7-diaza-spiro[2.5]octane-4-sulfonic acid phenethyl-(tetrahydro-pyran-2-ylmethyl)-amide] | < 6.30 | > 7.00 | 6.30 to 7.00 | > 7.00
3 | COc1ccc(CNS(=O)(=O)N2CCN(c3ncnc4[nH]ccc34)CC23CC3)cc1 [Example 195, N-[(4-methoxyphenyl)methyl]-5-(7H-pyrrolo[2,3-d]pyrimidin-4-yl)-5,8-diazaspiro[2.5]octane-8-sulfonamide] | < 6.30 | 6.30 to 7.00 | < 6.30 | 6.30 to 7.00
4 | CN(CC1CCS(=O)(=O)CC1)S(=O)(=O)N1CCN(c2ncnc3[nH]ccc23)CC12CC2 [Example 168, N-[(1,1-dioxothian-4-yl)methyl]-N-methyl-5-(7H-pyrrolo[2,3-d]pyrimidin-4-yl)-5,8-diazaspiro[2.5]octane-8-sulfonamide] | > 7.00 | > 7.00 | > 7.00 | > 7.00
5 | CN(CC1CCN(S(=O)(=O)CC2CC2)C1)S(=O)(=O)N1CCN(c2ncnc3[nH]ccc23)CC12CC2 (centres unmarked) [Example 122, N-[[1-(cyclopropylmethylsulfonyl)pyrrolidin-3-yl]methyl]-N-methyl-5-(7H-pyrrolo[2,3-d]pyrimidin-4-yl)-5,8-diazaspiro[2.5]octane-8-sulfonamide] | 6.30 to 7.00 | > 7.00 | > 7.00 | > 7.00
6 | CCC(=O)N1CCC(CN(C)S(=O)(=O)N2CCN(c3ncnc4[nH]ccc34)CC23CC3)C1 (centres unmarked) [Example 125, N-methyl-N-[(1-propanoylpyrrolidin-3-yl)methyl]-5-(7H-pyrrolo[2,3-d]pyrimidin-4-yl)-5,8-diazaspiro[2.5]octane-8-sulfonamide] | < 6.30 | > 7.00 | 6.30 to 7.00 | > 7.00
7 | CN(Cc1ccc(F)cc1)S(=O)(=O)N1CCN(c2ncnc3[nH]ccc23)CC12CC2 [Example 79, N-[(4-fluorophenyl)methyl]-N-methyl-5-(7H-pyrrolo[2,3-d]pyrimidin-4-yl)-5,8-diazaspiro[2.5]octane-8-sulfonamide] | 6.30 to 7.00 | > 7.00 | > 7.00 | > 7.00
8 | CN(C)S(=O)(=O)c1ccc(CN(C)S(=O)(=O)N2CCN(c3ncnc4[nH]ccc34)CC23CC3)o1 [Example 65, N-[[5-(dimethylsulfamoyl)-2-furyl]methyl]-N-methyl-5-(7H-pyrrolo[2,3-d]pyrimidin-4-yl)-5,8-diazaspiro[2.5]octane-8-sulfonamide] | 6.30 to 7.00 | > 7.00 | 6.30 to 7.00 | > 7.00
9 | O=S(=O)(N1CCCCC1)N1CCN(c2ncnc3[nH]ccc23)CC12CC2 [Example 38, 4-[4-(Piperidine-1-sulfonyl)-4,7-diaza-spiro[2.5]oct-7-yl]-7H-pyrrolo[2,3-d]pyrimidine] | 6.30 to 7.00 | 6.30 to 7.00 | 6.30 to 7.00 | > 7.00
10 | CN(CC(=O)c1ccccc1)S(=O)(=O)N1CCN(c2ncnc3[nH]ccc23)CC12CC2 [Example 12, 7-(7H-Pyrrolo[2,3-d]pyrimidin-4-yl)-4,7-diaza-spiro[2.5]octane-4-sulfonic acid methyl-(2-oxo-2-phenyl-ethyl)-amide] | < 6.30 | > 7.00 | 6.30 to 7.00 | > 7.00
11 | O=S(=O)(N(Cc1ccccc1)Cc1ccccc1)N1CCN(c2ncnc3[nH]ccc23)CC12CC2 [Example 146, N,N-dibenzyl-5-(7H-pyrrolo[2,3-d]pyrimidin-4-yl)-5,8-diazaspiro[2.5]octane-8-sulfonamide] | < 6.30 | 6.30 to 7.00 | < 6.30 | 6.30 to 7.00
12 | CN(C1CCCC1)S(=O)(=O)N1CCN(c2ncnc3[nH]ccc23)CC12CC2 [Example 61, N-cyclopentyl-N-methyl-5-(7H-pyrrolo[2,3-d]pyrimidin-4-yl)-5,8-diazaspiro[2.5]octane-8-sulfonamide] | 6.30 to 7.00 | > 7.00 | > 7.00 | > 7.00
13 | O=S(=O)(NCCc1ccccc1)N1CCN(c2ncnc3[nH]ccc23)CC12CC2 [Int 5] | < 6.30 | > 7.00 | 6.30 to 7.00 | > 7.00
14 | O=S(=O)(N(CCCO)CCc1ccccc1)N1CCN(c2ncnc3[nH]ccc23)CC12CC2 [Example 5, 7-(7H-Pyrrolo[2,3-d]pyrimidin-4-yl)-4,7-diaza-spiro[2.5]octane-4-sulfonic acid (3-hydroxy-propyl)-phenethyl-amide] | 6.30 to 7.00 | > 7.00 | > 7.00 | > 7.00

More lines, now with the values ahead:

Row | pEC50 [1] | pEC50 [2] | pEC50 [3] | pEC50 [4] | Compound
15 | 6.30 to 7.00 | > 7.00 | > 7.00 | > 7.00 | CN(CC1CCN(S(=O)(=O)CCCC#N)C1)S(=O)(=O)N1CCN(c2ncnc3[nH]ccc23)CC12CC2 (centres unmarked) [Example 121, N-[[1-(3-cyanopropylsulfonyl)pyrrolidin-3-yl]methyl]-N-methyl-5-(7H-pyrrolo[2,3-d]pyrimidin-4-yl)-5,8-diazaspiro[2.5]octane-8-sulfonamide]
16 | < 6.30 | > 7.00 | 6.30 to 7.00 | > 7.00 | CN(CCCc1ccc(C#N)cc1)S(=O)(=O)N1CCN(c2ncnc3[nH]ccc23)CC12CC2 [Example 29, 7-(7H-Pyrrolo[2,3-d]pyrimidin-4-yl)-4,7-diaza-spiro[2.5]octane-4-sulfonic acid [3-(4-cyano-phenyl)-propyl]-methyl-amide]
17 | 6.30 to 7.00 | > 7.00 | 6.30 to 7.00 | > 7.00 | CN(CC1CCOCC1)S(=O)(=O)N1CCN(c2ncnc3[nH]ccc23)CC12CC2 [Example 89, N-methyl-5-(7H-pyrrolo[2,3-d]pyrimidin-4-yl)-N-(tetrahydropyran-4-ylmethyl)-5,8-diazaspiro[2.5]octane-8-sulfonamide]
18 | < 6.30 | > 7.00 | 6.30 to 7.00 | > 7.00 | CN(CC1CCNC1)S(=O)(=O)N1CCN(c2ncnc3[nH]ccc23)CC12CC2 (centres unmarked) [Int 25]
19 | 6.30 to 7.00 | > 7.00 | > 7.00 | > 7.00 | CN(CCc1ccccc1)S(=O)(=O)N1CCN(c2ncnc3[nH]ccc23)CC12CC2 [Example 58, 7-(7H-Pyrrolo[2,3-d]pyrimidin-4-yl)-4,7-diaza-spiro[2.5]octane-4-sulfonic acid methyl-phenethyl-amide]
20 | > 7.00 | > 7.00 | > 7.00 | > 7.00 | CN(CCCC#N)S(=O)(=O)N1CCN(c2ncnc3[nH]ccc23)CC12CC2 [Example 35, 7-(7H-Pyrrolo[2,3-d]pyrimidin-4-yl)-4,7-diaza-spiro[2.5]octane-4-sulfonic acid (3-cyano-propyl)-methyl-amide]
